Data reported in publication PMC6130654 (Pharmaceutical Biology, 2016).

Assays:
P-gp = P-gp expression levels in small intestine by western blot analysis; type: in vivo, ICR mice; details: mouse small intestine, intragastric, seven days; for P-gp expression compared with negative control: normalized to Na+-K+-ATPase
Protocol: Healthy male ICR mice (18-22 g of body weight) were purchased from SPF Animal Centre of […] Medical University ([…], China). […] The drugs were administrated intragastrically for seven consecutive days. Membrane proteins were harvested by […] Membrane and Plasma Protein Purification Kit ([…], Nanjing, China), and the protein concentrations were determined using KeyGEN BCA Protein Quantitation Assay kit ([…], Nanjing, China). An equal quantity of protein (48 μg) from membrane protein was resolved using 7.5% SDS-PAGE gel and subsequently transferred onto nitrocellulose membranes (Bio-Trace, Auckland, New Zealand). […] Antibodies were both purchased from Abcam (Cambridge, United Kingdom). The membranes were incubated with horseradish peroxidase-conjugated AffiniPure Goat Anti-Rabbit IgG (ZSGB-BIO, Beijing, China) for 1 h and signals were observed using SuperSignal West Pico (Thermo Scientific, Waltham, MA). Western blotting bands intensity was quantified by densitometric analysis using Image J version 2 × (NIH Image Software, […]).

[1] = tested on: ABC transporter coupling ATPase; assay: ABC transporter-related ATPase activity assay on small intestine membrane proteins; type: in vivo, mice; details: mouse small intestine, intragastric, seven days, p < 0.05
Text: Healthy male ICR mice (18-22 g of body weight) were purchased from SPF Animal Centre of […] Medical University ([…], China). […] The drugs were administrated intragastrically for seven consecutive days.

MDR1 mRNA = assay: MDR1 expression in small intestine determined by RT-qPCR; details: mouse small intestine; intragastric, seven days; verapamil 40 mg/kg, ART-verapamil 1:1, ART-CHR all ratios, CHR alone 80 mg/kg; p < 0.01
Protocol: All animals were housed in polycarbonate cages and acclimated in an environmentally controlled room (23 ± 2 °C, with adequate ventilation and a 12 h light/dark cycle) prior to use. All animals were provided with standard laboratory food and water before and during the experiments. […] The drugs were administrated intragastrically for seven consecutive days.
The mice were euthanized by cervical vertebra dislocation. Small intestines were harvested and cleaned using normal saline at least three times. Total RNA was extracted from the mouse small intestine using E.Z.N.A.^TM Total RNA Kit (OMEGA Bio-Tek, Norcross, GA), in accordance with the instructions of the manufacturer. RNA concentrations were measured with a microplate spectrophotometer (Bio-RAD, Hercules, CA) at 260 nm. RNA quality was evaluated using electrophoresis in 1% agarose gels. Total RNA (3 μg) was reverse transcribed into first-strand complementary DNA (cDNA) using Thermo Scientific RevertAid First Strand cDNA Synthesis Kit (Thermo Scientific, Waltham, MA). Each cDNA sample (1 μL) was amplified with 12 μL Thermo Scientific Maxima SYBR Green qPCR Master Mix (2×). ROX Solution provided (Thermo Scientific, Waltham, MA) and 1 μmol of each primer. […]

Plasmodium berghei = tested on: Plasmodium berghei; set-up: method as in Wei et al. [2015]; details: ref Wei et al. [2015]; cited from earlier work
[2] = ref Wei et al. [2015]; cited from earlier work
rat CYP3A = details: ref Wei et al. [2015]; cited from earlier work

Structure (SMILES)	P-gp expression compared with negative control (P-gp)	ATPase activity versus the vehicle ([1]; ART 40 mg/kg, verapamil 40 mg/kg)	MDR1 mRNA expression compared with ART alone (MDR1 mRNA)	effect of CHR on anti-malarial efficacy of ART (Plasmodium berghei)	P-gp expression levels compared with ART alone (P-gp; ART-verapamil (1:1), ART-CHR (1:0.1, 1:1, 1:2, 1:4), CHR alone, p < 0.05 and p < 0.01)	ATPase activity compared with ART alone ([1]; ART-CHR 1:4 (40:160 mg/kg), CHR alone 80 mg/kg)	effect of CHR on rat plasma concentration of ART [2]	manner of inhibition of rat CYP3A (rat CYP3A)
C[C@@H]1CC[C@H]2[C@@H](C)C(=O)O[C@@H]3O[C@@]4(C)CC[C@@H]1[C@]32OO4 [ART, artemisinin, reference compound]	up-regulated	remarkably decreased	–	–	–	–	–	–
COc1cc(-c2oc3cc(OC)c(OC)c(O)c3c(=O)c2OC)ccc1O [CHR, Chrysosplenetin]	No significant difference	–	reversed to normal levels	significantly increased	significantly decreased	slight increase	significantly increased	uncompetitive
